Test results: US10556898B2, “Indazolyl-1,2,4-thiadiazolamines and related compounds for inhibition of Rho-associated protein kinase and the treatment of disease” (Lycera Corporation, priority 2016, dated 2020)
Like-named read-outs stand apart in the source and are kept apart here.

Experiments:
[1] = biological target: T1, GST-tagged human ROCK1 catalytic domain 1-477 (Homo sapiens, UniProt Q13464); assay: Isolated Enzyme Assay, ROCK1 (LANCE Ultra ULight-CREBtide FRET); assay type: biochemical; settings: 30 μM highest concentration tested, read-out: Results from Isolated Enzyme Assay IC50 (μM) ROCK1
T1 construct: human ROCK1 catalytic domain 1-477 from Carna Biosciences (cat #01-109); purchased Carna Biosciences 01-109; host or cells: baculovirus expression system
T1 sequence (Q13464 1-477): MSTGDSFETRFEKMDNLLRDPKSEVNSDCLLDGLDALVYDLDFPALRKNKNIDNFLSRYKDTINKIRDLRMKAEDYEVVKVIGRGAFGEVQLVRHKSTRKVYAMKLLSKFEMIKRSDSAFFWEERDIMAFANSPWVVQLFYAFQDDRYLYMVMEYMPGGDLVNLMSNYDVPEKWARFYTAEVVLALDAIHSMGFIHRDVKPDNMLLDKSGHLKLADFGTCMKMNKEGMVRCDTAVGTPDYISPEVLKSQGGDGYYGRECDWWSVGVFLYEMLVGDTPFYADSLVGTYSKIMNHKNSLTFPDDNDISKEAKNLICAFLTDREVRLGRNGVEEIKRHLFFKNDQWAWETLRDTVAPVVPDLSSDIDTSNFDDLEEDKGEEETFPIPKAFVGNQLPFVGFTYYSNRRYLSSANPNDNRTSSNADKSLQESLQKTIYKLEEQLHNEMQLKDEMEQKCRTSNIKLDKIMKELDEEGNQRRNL
Description: (§1) Exemplary compounds were tested for ability to inhibit Rho-associated protein kinase isoform 1 (ROCK1) and Rho-associated protein kinase isoform 2 (ROCK2). Assay procedures and results are described below.
(§2) Part I—Procedure for Determining ROCK Inhibition Ability of Test Compounds Using an Isolated Enzyme Assay
(§3) Protein constructs were purified from a baculovirus expression system. The peptide substrate was fluorescent LANCE® Ultra ULight-CREBtide: […] (PerkinElmer, # TRF0107-D). Kinase reactions were carried out in a 10 μL volume in 384-well plates: 50 nM ULight-CREBtide substrate, 2 nM constitutively active ROCK1 or ROCK2 kinase, and test compound in DMSO (or DMSO only for controls) were diluted into assay buffer containing 50 mM Tris-HCl (pH=7.5), 10 mM MgCl2, 1 mM EGTA, 0.01% Tween-20, and 2 mM DTT such that the final concentration of DMSO was 0.5%. After a 90 minute incubation at room temperature on a shaker table, the kinase reaction was stopped by addition of 10 mM EDTA, and phosphorylation of the substrate was detected by adding 1 nM LANCE® Ultra Europium-anti-phospho-CREB (ser133) antibody (PerkinElmer, # TRF0200-D) and incubating for 60 minutes on a shaker at room temperature. The fluorescence resonance energy transfer (FRET) signals were read and analyzed on an Envision™ 2103 Multilabel Reader (Perkin Elmer). The concentration of test compound required to inhibit substrate phosphorylation by 50% (the IC50) was calculated by non-linear regression using GraphPad PRIZM.

[2] = biological target: T2, GST-tagged human ROCK2 catalytic domain 1-553 (Homo sapiens, UniProt O75116); assay: Isolated Enzyme Assay, ROCK2 (LANCE Ultra ULight-CREBtide FRET); assay type: biochemical; settings: 30 μM highest concentration tested, read-out: Results from Isolated Enzyme Assay IC50 (μM) ROCK2
T2 construct: GST-tagged human ROCK2 catalytic domain 1-553 from Carna Biosciences (Cat #01-110); purchased Carna Biosciences 01-110; host or cells: baculovirus expression system
T2 sequence (O75116 1-553): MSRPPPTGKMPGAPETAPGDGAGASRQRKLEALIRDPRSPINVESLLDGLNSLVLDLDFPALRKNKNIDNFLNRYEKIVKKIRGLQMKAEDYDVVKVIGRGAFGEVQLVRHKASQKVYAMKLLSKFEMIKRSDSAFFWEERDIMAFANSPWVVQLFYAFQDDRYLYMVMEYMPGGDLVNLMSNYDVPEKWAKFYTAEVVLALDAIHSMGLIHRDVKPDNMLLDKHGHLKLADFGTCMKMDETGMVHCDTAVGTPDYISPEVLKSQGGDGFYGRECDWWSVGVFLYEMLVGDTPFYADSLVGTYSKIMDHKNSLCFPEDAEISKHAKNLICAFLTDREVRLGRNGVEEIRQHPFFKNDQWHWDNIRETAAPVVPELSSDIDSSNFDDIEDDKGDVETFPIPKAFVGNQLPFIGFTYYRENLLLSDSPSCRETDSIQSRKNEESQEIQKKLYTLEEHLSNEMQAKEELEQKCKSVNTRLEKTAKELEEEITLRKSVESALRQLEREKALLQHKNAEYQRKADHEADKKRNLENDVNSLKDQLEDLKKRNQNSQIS
Description: as §1, §2, §3

SMILES	IC50 ([1]; isolated enzyme)	IC50 ([2]; isolated enzyme)	IC50 ([1]; isolated enzyme assay)	IC50 ([2]; isolated enzyme assay)
O=C(Nc1cccc(-c2nsc(Nc3ccc4[nH]ncc4c3)n2)c1)c1cccnc1 [Compound A-2]	> 30 µM	< 1 µM	–	–
Cc1n[nH]c2ccc(Nc3nc(-c4ccnc(NC(=O)c5ccnn5C)c4)ns3)cc12 [Compound A-5]	> 30 µM	> 30 µM	–	–
Cc1n[nH]c2ccc(Nc3nc(-c4cccc(NC(=O)c5ccnn5C)c4)ns3)cc12 [Compound A-8]	> 30 µM	< 1 µM	–	–
Cn1cc(-c2nsc(Nc3ccc4[nH]ncc4c3Cl)n2)cc(NC(=O)c2cnccn2)c1=O [IV-1]	–	–	> 30 µM	< 1 µM
Cn1cc(-c2nsc(Nc3ccc4[nH]ncc4c3Cl)n2)cc(N2CCCC2=O)c1=O [IV-11]	–	–	> 30 µM	1 to 15 µM
CS(=O)(=O)Nc1cccc(-c2nsc(Nc3ccc4[nH]ncc4c3Cl)n2)c1 [IV-16]	–	–	1 to 15 µM	< 1 µM
O=C(Nc1cncc(-c2nsc(Nc3ccc4[nH]ncc4c3Cl)n2)c1)c1cncs1 [IV-18]	–	–	> 30 µM	< 1 µM
Cc1cc(NC(=O)c2cc(C)nn2C)cc(-c2nsc(Nc3ccc4[nH]ncc4c3Cl)n2)n1 [IV-37]	–	–	> 30 µM	< 1 µM
O=S(=O)(Nc1cccc(-c2nsc(Nc3ccc4[nH]ncc4c3Cl)n2)c1)c1cccnc1 [IV-40]	–	–	> 30 µM	1 to 15 µM
Cc1c(S(=O)(=O)Nc2cccc(-c3nsc(Nc4ccc5[nH]ncc5c4Cl)n3)c2)cnn1C(F)F [IV-51]	–	–	15 to 30 µM	1 to 15 µM
CN(C)CCn1cnc2c(-c3nsc(Nc4ccc5[nH]ncc5c4Cl)n3)cccc21 [IV-67]	–	–	1 to 15 µM	1 to 15 µM
O=C(c1cccc(-c2nsc(Nc3ccc4[nH]ncc4c3Cl)n2)c1)N1CCOCC1 [IV-80]	–	–	1 to 15 µM	1 to 15 µM
O=C(c1cccc(-c2nsc(Nc3ccc4[nH]ncc4c3Cl)n2)c1)N1CCc2ccccc2C1 [IV-84]	–	–	> 30 µM	< 1 µM
O=C(c1cccc(-c2nsc(Nc3ccc4[nH]ncc4c3Cl)n2)c1)N1CCCC1 [IV-86]	–	–	1 to 15 µM	1 to 15 µM
CN(C)C(=O)c1cccc(-c2nsc(Nc3ccc4[nH]ncc4c3Cl)n2)c1 [IV-87]	–	–	> 30 µM	1 to 15 µM
Cn1cc(-c2nsc(Nc3ccc4[nH]ncc4c3Cl)n2)cc(C(=O)O)c1=O [IV-91]	–	–	> 30 µM	> 30 µM

Further lines, results first:

IC50 ([1]; isolated enzyme)	IC50 ([2]; isolated enzyme)	IC50 ([1]; isolated enzyme assay)	IC50 ([2]; isolated enzyme assay)	SMILES
1 to 15 µM	< 1 µM	–	–	O=C(Nc1cccc(-c2nsc(Nc3ccc4[nH]ncc4c3)n2)c1)c1c[nH]cn1 [Compound A-1]
> 30 µM	< 1 µM	–	–	Cn1nccc1C(=O)Nc1cncc(-c2nsc(Nc3ccc4[nH]ncc4c3Cl)n2)c1 [Compound A-6]
> 30 µM	> 30 µM	–	–	Cc1n[nH]c2ccc(Nc3nc(-c4cncc(NC(=O)c5ccnn5C)c4)ns3)cc12 [Compound A-7]
–	–	1 to 15 µM	< 1 µM	CC(C)N1CCN(c2cc(-c3nsc(Nc4ccc5[nH]ncc5c4Cl)n3)cn(C)c2=O)C1=O [IV-3]
–	–	> 30 µM	< 1 µM	Cn1cc(-c2nsc(Nc3ccc4[nH]ncc4c3Cl)n2)cc(N2CCOC2=O)c1=O [IV-4]
–	–	< 1 µM	< 1 µM	Cc1cc(=O)n(-c2cc(-c3nsc(Nc4ccc5[nH]ncc5c4Cl)n3)ccn2)n1C [IV-23]
–	–	> 30 µM	< 1 µM	O=C(Nc1cncc(-c2nsc(Nc3ccc4[nH]ncc4c3Cl)n2)c1)c1cocn1 [IV-36]
–	–	< 1 µM	1 to 15 µM	Cc1nc(S(=O)(=O)Nc2cccc(-c3nsc(Nc4ccc5[nH]ncc5c4Cl)n3)c2)cn1C [IV-41]
–	–	< 1 µM	< 1 µM	O=C1CCCN1c1cc(-c2nsc(Nc3ccc4[nH]ncc4c3Cl)n2)ccn1 [IV-52]
–	–	1 to 15 µM	1 to 15 µM	O=c1ccccn1-c1cccc(-c2nsc(Nc3ccc4[nH]ncc4c3Cl)n2)c1 [IV-53]
–	–	1 to 15 µM	1 to 15 µM	CN1CCN(C(=O)c2cccc(-c3nsc(Nc4ccc5[nH]ncc5c4Cl)n3)c2)CC1 [IV-85]
–	–	> 30 µM	> 30 µM	O=C1CCCN1c1cc(-c2nsc(Nc3ccc4[nH]ncc4c3Cl)n2)cn2ccnc12 [IV-92]
